Here are results for 3 compounds from patent US20050147608A1, “Novel regulatory mechanisms of NF-kappaB” (Beth Israel Deaconess Medical Center, Inc., priority 2003, published 2005).

The subject of one series is NF-κB. Put plainly: NF-κB-Luc gene reporter assay in breast cancer cell lines after Pin1 inhibition. Type of series: cell-based. The following applies: BT20 (ER-negative) and MCF-7 (ER-positive) cells, both cell lines; 48 hrs after transfection. From the text:
(C) Inhibition of NF-κB activation and NF-κB DNA binding activity in breast cancer cell lines by downregulation of Pin 1. Two breast cancer cell lines were transfected with Pin1-specific or non-specific siRNA together with a NF-kB-Luc or TK-Luc reporter construct for 48 hrs, followed by assaying luciferase activity and Pin1 protein levels (insets) (C) or assaying NF-κB DNA binding activity by EMSA using NF-κB or OCT1 consensus oligonucleotides (D).
Approximately 60% confluent cells were transfected in triplicate in 12 well dishes with Effectene (Qiagen). Gene reporter assays were performed with Dual-Luciferase reporter assay system (Promega) at 24-36 hr after transfection as described previously (Wulf et al., 2001). pRL-TK (Promega) was used as an internal control for transfection efficiency. All results are expressed as X±SD of independent triplicate cultures. For gene reporter assays in breast cancer cell line, cells were transfected with pSuppressor Neo vector encoding Pin1 specific siRNA (5′-[…]-3′) or non-specific siRNA (5′-[…]-3′) together with Ig-kB luciferase construct and pRL-TK. After 48 hr, cells were lysed and subjected to gene reporter assay.
Given that the NF-κB activation is regulated by a series of phosphorylation events, it was investigated whether Pin1 is involved in this regulation. […]

The test system of a further series is Pin1 and p65. Put plainly: GST-Pin1 pulldown of Xpress-tagged p65 from 293T cells. The class given is binding. The following applies: 293T cells treated with TNF-α for 3 hrs vs PBS. How it is done:
(D) Enhancement of Pin1 and p65 binding by TNF-α. 293T cells expressing Xpress-tagged p65 were treated with PBS or TNF-αfor 3 hrs, followed by GST-pull down experiment and immunoblot with anti-Xpress antibody.
(§1) Cells were arrested at the G1/S phase or the mitotic phase, as describe previously. Total cells, 293T or HeLa, were lysed with GST-pulldown buffer (50 mM Hepes pH7.4, 150 mM NaCl, 10% glycerol, 1% Triton-X100, 1.5 mM MgC12, 1 mM EGTA, 100 mM NaF, 1 mM Na3VO4, 1 mM DTT and 0.5 μg/ml Leupeptin, 1.0 μg/ml Pepstatin, 0.2 mM PMSF) and incubated were incubated with 20 μl of agarose beads containing GST-Pin1 or GST at 4° C. for 2 hr, as described previously (Ryo et al., 2001). The precipitated proteins were washed three times with wash buffer containing and subjected to SDS-PAGE. For immunoprecipitation, cells were harvested at 24 hr after transfection and lysed with NP-40 lysis buffer (10 mM Tris HCl pH7.5, 100 mM NaCl, 0.5% NP-40, 1 mM Na3VO4, 0.5 μg/ml Leupeptin, 1.0 μg/ml Pepstatin, 0.2 mM PMSF). Cell lysates were incubated for 1 hr with Protein A/G Sepahrose/mouse IgG complexes.
Pin1 binds and isomerizes specific pSer/Thr-Pro motifs in certain phosphoproteins. To explore the molecular mechanism of NF-kB activation by Pin1, it was investigated as to whether any components of NF-kB or IkBα are Pin1 substrates. […]

Series [1] has as its system p65. Put plainly: In vivo ubiquitination assay of p65 in HeLa cells (His-ubiquitin, Ni-agarose pulldown). Type of series: cell-based. The following applies: His-tagged ubiquitin, MG-132 for 16 hr. On the procedure: (F) Ubiquitination of p65 in vivo. HeLa cells expressing p65, UbcH5a and His-tagged ubiquitin or vector controls were treated with MG-132 or DMSO control for 16 hr, followed by lysis using sonication in a buffer containing 6M urea. Ubiquitin-conjugated proteins were captured with […] beads and subjected to immunoblot with anti-p65 antibody.
To examine which region of the p65 molecule can be ubiquitinated, different GST-p65 fragments (FIG. 3D) were incubated with S100 HeLa cells extracts, ubiquitin, E1 and UbcH5a or UbcH6, and then purified GST-p65 fragments using GST beads, followed by immunoblot with anti-ubiquitin antibodies. Although neither the fragment A nor C was ubiquitinated, fragment B, which contains the Pin1 binding Thr254-pro motif (FIG. 3E), was poly-ubiquitinated with UbcH5a, but not with UbcH6 (FIG. 6D). To examine whether other E2 enzymes could catalyze the ubiquitination of p65 in vitro, we incubated recombinant GST-p65 fragment B with in vitro ubiquitination assay using different E2 enzymes. Out of the 8 E2 enzymes examined, only UbcH5a effectively conjugated multiple ubiquitin molecules into p65 (FIG. 6E). […] However, no ubiquitinated p65 was detected in the absence of His ubiquitin and/or MG-132 (FIG. 6F), indicating the specificity of the in vivo ubiquitination assay.

Series [2] concerns p65. Put plainly: p65 protein stability in Pin1−/− MEFs. Type of series: cell-based, mouse. An excerpt:
The ability of Pin1 to regulate the protein stability of p65 led to another surprising finding in this study, which is the ubiquitin-mediated proteolysis of p65. Although the ubiquitin-mediated proteolysis of IkBα has been well characterized (Baeuerle and Baltimore, 1996; Ghosh et al., 1998), a similar regulation has not been previously described for NF-kB itself. […] Furthermore, even in Pin1+/+ cells, the point mutation in p65 (T254A) that disrupts its binding to Pin1 converts p65 from a stable into an extremely unstable protein due to rapid nuclear export and subsequent protein degradation.

The test system of series [3] is p65-T254A. Put plainly: Protein degradation assay (cycloheximide chase, immunoblot) of p65-T254A in 293T cells. The class given is cell-based. Also noted: dose or concentration left out as unconfirmed. On the procedure:
(A, B) Stabilization of p65-T254A by a proteosome inhibitor. 293T cells expressing Xpress-p65-T254A or Xpress-LacZ were treated with cycloheximide and MG-132 ([…]) or the solvent DMSO for the times indicated, followed by immunoblot with anti-Xpress antibody (A), followed by semi-quantification with Imagequant (B). (C) Ubiquitination of p65 in vitro. In vitro translated 35 S-labeled p65 was incubated with ubiquitin in the presence or absence of E1 and UbcH5a for times indicated, followed by separation on SDS-PAGE and autoradiography. (D) Ubiquitination of the GST-p65 fragment B, but A or C. GST-p65 truncation mutants (FIG. 3D) were incubated with HeLa S-100 extracts, ubiquitin, E1 and either UbcH5a or UbcH6 for 3 hrs, followed by GST pulldown and immunoblotting with anti-ubiquitin antibody. (E) Ubiquitination of GST-p65 fragment B via UbcH5a. GST-p65-truncated mutant B was subjected to ubiquitination assay in vitro using different E2 enzymes.
293T cells were transfected with Xpress-tagged p65. A plasmid encoding Xpress-LacZ was used as a transfection control. […] Cells were harvested at each time points, and total lysates were analyzed by immunoblotting with anti-Xpress antibody (Invitrogene). The blots were scanned and semi-quantified by using the software NIH image 1.6.2, as described (Ryo et al., 2001). […]

Series [4] has as its system p65-T254A. Put plainly: Co-immunoprecipitation of Pin1 with Xpress-tagged p65-T254A in 293T cells after proteasome inhibition. The class given is cell-based. The following applies: 20 μM MG-132 for 12 hr. On the procedure: (G) Failure of Pin1 to bind p65-T254A. 293T cells were co-transfected with Pin1 and Xpress-tagged p65 or its T254A mutant. After cells were incubated with 20 μM MG-132 for 12 hr, they were subjected to immunoprecipitation analysis with anti-Xpress antibody, followed by immunoblot with anti-p65 or anti-Pin1 antibodies.
as §1
Three truncation mutants of p65 were generated and subjected them to the GST-pulldown assay. […]

Where a SMILES comes first, the peptide text is derived from it. The star is where a group is joined. Cbz = O=C(OCc1ccccc1)*

Take “siRNA: pSuppressor Neo vector encoding Pin1 specific siRNA (5′-GCCACATCACTAACGCCAGC-3′) (expressed from pSuppressor Neo vector)”: in the series on NF-κB, the “transcriptional activity of NF-κB-Luc” value is “significantly suppressed the transcriptional activity of NF-κB-Luc”.
Turning to TNF-α, the “increase of Pin1-p65 binding” value in the series on Pin1 and p65 is given as approximately 3 fold.
Take `CC(C)C[C@@H](C=O)NC(=O)[C@H](CC(C)C)NC(=O)[C@H](CC(C)C)NC(=O)OCc1ccccc1` [MG-132] (Cbz-Leu-Leu-Leu-aldehyde): the “poly-ubiquitination of p65” value with p65 [1] is recorded as “p65 was substantially poly-ubiquitinated”. In addition, the “stability of p65” value with p65 [2] is “could be stabilized”. In the series on p65-T254A [3], the “half-life of p65-T254A protein” value is given as “strikingly prolonged the half-life of p65-T254A protein”. In the series with p65-T254A [4], the “stability of p65-T254A” value was “p65-T254A was stable”.
